# Measured values reported in patent US20210154272A1, “NEUROMODULATING COMPOSITIONS AND RELATED THERAPEUTIC METHODS FOR THE TREATMENT OF CANCER BY MODULATING AN ANTI-CANCER IMMUNE RESPONSE” (Flagship Pioneering Innovations V, Inc., priority 2016, published 2021).
# Columns and labels:
# [1] = system: T cells in the lymph node; test: Lymph node remodeling by hock injection, flow cytometry of lymph node cells; format: in vivo, C57BL/6J mice; settings: hock injection of Haloperidol 48.5 nmol followed by quinpirole 0.1 nmol; 24 hours
# Description: 24 hours after hock injection, brachial lymph nodes (LN) were harvested in culture medium (RPMI+10% FBS). LNs were transferred to 24-well tissue culture plates containing 0.5 mL LN digestion buffer (RPMI, 2% FBS, collagenase D (3.3 mg/mL), and DNAse I (40 ug/mL)). LN capsules were manually opened with two syringe (26G) needles and the LNs were incubated in digestion buffer for 15 minutes. Digested LNs were filtered with a 40 μNA cell strainer and tissues were smashed with the plunger of a 5 mL syringe. Collected cells were washed in culture medium and plated for assays. Total number of viable cells were assessed by staining with viability dye eFluor 780 (eBioscience). Surface markers of various immune cell subsets were analyzed by staining the cells with antibodies for cell identity (CD3, CD4, CD8, CD19), for the inflammatory marker CD69, and the migratory marker CCR7. The cells were then assayed by flow cytometry.
# primary human T cells = test: T cell activation and cytokine secretion assay (LEGENDplex); format: cell-based
# Description: Peripheral blood mononuclear cells (PBMCs) were isolated from whole blood by ficoll density separation. Briefly, blood was diluted 1:2 with 0.5 mM EDTA solution in PBS, loaded onto a Ficoll-filled Leucosep tube (Greiner Bio-One), and centrifuged for 20 minutes at 1000×g. After centrifugation, the leukocyte/PBMC layer on top of the separation medium was collected and sequentially washed three times with 0.5 mM EDTA solution in PBS. T cells were isolated from PBMCs using magnetic bead-based separation following vendor specification, e.g., Biolegend MojoSort Human CD4/CD8 Naïve T Cell Isolation Kit protocol. In brief, the PBMCs were labeled with biotinylated antibodies against cell surface receptors for cells not in the population of interest. The labeled cells are then captured by streptavidin-coated magnetic beads and removed by magnetic incubation. The uncaptured cells that flow through the magnetic separation are predominantly comprised of the population of interest, in this instance CD3+ T cells. T cells were stained with a 5 μM solution of Tag-it Violet™ dye (BioLegend) for 20 minutes protected from light. The stain was quenched by incubating the cells in cell culture medium containing 10% FBS (complete media). Stained cells were plated on tissue culture plates and sub-maximally activated with concanavalin A (con A) added to the culture medium. Cells were plated at 0.1×10^6 cells well. […] Cells were collected at 24, 48, and 72 hrs. Supernatants were collected at 24, 48, and 72 hrs and cytokine secretion was analyzed by flow cytometry using a LEGENDplex assay (BioLegend). In brief, following manufacturer's protocol, beads pre-coated with antibodies specific to various cytokines were incubated with cell supernatant. […] The beads were then stained and the captured cytokine composition assessed by flow cytometry.
# [2] = system: Primary Natural Killer (NK) cells; test: NK cell ADCC assay with trastuzumab-coated Her2 expressing target cells; format: cell-based, human; settings: for ADCC of NK cells treated with metaproterenol alone relative to NK cells pre-treated with this antagonist prior to the agonist: antagonist pre-treatment prior to metaproterenol
# Description: Primary Natural Killer (NK) cells are isolated from human peripheral blood using a magnetic bead-based separation kit that negatively selects NK cells by sequestering other defined cell types (T, B, monocytes, etc.). Isolated NK cells are incubated with a target cell line, for example a Her2 expressing cancer cell line that has been pre-coated with trastuzumab, an anti-Her2 antibody, at a range of target-to-effector cell ratios. Following antibody-dependent cell cytotoxicity (ADCC)—antibody-mediated killing of the target cells by the NK cells, the number of surviving target cells is assessed by a fluorescent viability stain.
# [3] = system: macrophages differentiated from CD14+ monocytes; test: Macrophage activation and cytokine secretion assay; format: cell-based, human; settings: dilutions from 10 μM to 1 nM
# Description: Peripheral blood mononuclear cells (PBMCs) were isolated from whole blood by ficoll density separation. Briefly, blood was diluted 1:2 with 0.5 mM EDTA solution in PBS, loaded onto a Ficoll-filled Leucosep tube (Greiner Bio-One), and centrifuged for 20 minutes at 1000×g. After centrifugation, the leukocyte/PBMC layer was collected and sequentially washed three times with 0.5 mM EDTA solution in PBS.
# Monocytes (CD14+) were isolated from PBMCs using magnetic bead-based separation following vendor specifications, e.g., Biolegend MojoSort Human CD14 Selection Kit protocol. In brief, PBMCs were labeled with biotinylated antibodies against cell surface receptors for cells not in the population of interest. The labeled cells are then captured by streptavidin-coated magnetic beads and removed by magnetic incubation. The uncaptured cells that flow through the magnetic separation are predominantly comprised of the population of interest, in this case CD14+ monocytes.
# Monocytes were differentiated into macrophages by culturing in DMEM complete medium containing 10% FBS for seven days in the presence of 40 ng/mL human M-CSF. Media was changed on day 1 and day 4. On Day 4, macrophages were polarized to various subtypes as follows: M0—incubated with 40 ng/mL M-CSF; M1—cultured with 40 ng/mL M-CSF, 20 ng/mL IFNγ, and 50 ng/mL LPS; M2—incubated with 40 ng/mL M-CSF, 20 ng/mL 1L4, 20 ng/mL IL10, and 20 ng/mL TFGB. On day 7, cells were harvested by scraping them from the tissue culture plates and transferring them to 96-well plates.
# Supernatants were collected at 24, 48, and 72 hrs and cytokine secretion was analyzed by flow cytometry using a LEGENDplex assay (BioLegend). In brief, following manufacturer's protocol, beads that are pre-coated with antibodies specific to various cytokines were incubated with cell supernatant. […] The beads were then stained and the captured cytokine composition assessed by flow cytometry.
# M1 macrophage polarization is defined as increase in production of IL-12, TNF, IL-6, IL-8, IL-1B, MCP-1 and CCL2. Additionally, markers of M1 polarization that can be detected by RNA include Nos2. M2 polarization is defined as increase in IL-10 and/or a decrease in the M1 cytokines listed above. Additionally, markers of M2 polarization that can be detected by RNA include Arg1, IDO, PF4, CCL24, IL10, and IL4Ralpha.
# [4] = low sub-nanomolar concentrations, 72 hours post treatment
# [5] = T cells from two different donors, multiple time points
compound,measurement,setting,value
O=C(CCCN1CCC(O)(c2ccc(Cl)cc2)CC1)c1ccc(F)cc1 [haloperidol],effect of antagonist pre-treatment on the quinpirole-induced increase of CCR7+ T cells in the lymph node,[1],inhibited
NCCc1ccc(O)c(O)c1 [dopamine],production of the pro-survival cytokine IL-2,"primary human T cells; 24 and 48 hours post stimulation, nanomolar concentrations",increase
same,production of the pro-inflammatory cytokine IL-5,primary human T cells; [4],increase
same,production of the pro-inflammatory cytokine IL-6,primary human T cells; [4],increase
same,production of the pro-inflammatory cytokine IL-10,primary human T cells; [4],increase
same,production of the pro-inflammatory cytokine IL-13,primary human T cells; [4],increase
same,production of the pro-inflammatory cytokine IFNγ,"primary human T cells; low sub-nanomolar concentrations, 72 hours post treatment, con A sub-maximally activated T cells",increase
CC(C)NCC(O)COc1cccc2ccccc12 (stereo not drawn) [propranolol],ADCC of NK cells treated with metaproterenol alone relative to NK cells pre-treated with this antagonist prior to the agonist,[2],significantly less ADCC
CC(C)NCC(O)c1ccc(O)c(O)c1 (stereo not drawn) [isoproterenol],transcript of NOS2,[3]; M1 marker,decrease
same,transcripts for Arg1,[3]; M2 marker,increase
same,transcripts for IL-10,[3]; M2 marker,increase
same,macrophage polarization (M1 or M2 phenotype),[3],polarized toward an M2 phenotype
same,production of pro-inflammatory cytokine IFNγ,"primary human T cells; T cells from two different donors, 72 hours (FIG. 6A)",decreased
same,production of pro-inflammatory cytokine TNFα,"primary human T cells; T cells from two different donors, 72 hours (FIG. 6B)",decreased
same,production of pro-inflammatory cytokine IL-10,"primary human T cells; T cells from two different donors, 72 hours (FIG. 6C)",decreased
same,amount of pro-inflammatory cytokine IL-10,primary human T cells; [5],decrease
same,production of pro-inflammatory cytokine IFNγ,primary human T cells; [5],decrease
same,production of pro-inflammatory cytokine TNFα,primary human T cells; [5],decrease
CC(C)(C)NCC(O)COc1cccc2c1CC(O)C(O)C2 (stereo not drawn) [nadolol],ADCC of NK cells treated with metaproterenol alone relative to NK cells pre-treated with this antagonist prior to the agonist,[2],significantly less ADCC
CC(C)NCC(O)c1cc(O)cc(O)c1 (stereo not drawn) [metaproterenol],"ADCC induced by agonist-treated NK cells, compared with NK cells pre-treated with a beta adrenergic antagonist prior to the agonist",[2]; surviving target cells by fluorescent viability stain,significantly less ADCC
neuropeptide Y,cytokine IL-4,"primary human T cells; sub-nanomolar concentrations, 48 hours post-treatment",increase
